Data on 20 compounds can be found in patent US20220127247A1, “N-(PYRIDIN-2-YL)PYRIDINE-SULFONAMIDE DERIVATIVES AND THEIR USE IN THE TREATMENT OF DISEASE” (NOVARTIS AG, priority 2019, published 2022).

This assay addresses T1, delF508-CFTR (Homo sapiens, UniProt P13569, DEL508-508).
T1 construct: expressed in transfected cells
Description: Measurement of delF508-CFTR-HRP surface expression in CFBE41o- cells. Format: cell-based. Particulars: for pEC50: HRP-tagged delF508-CFTR in CFBE41o- cells, 24 h with compound, luminescence, 10-point curve, top 10 μM; for Emax: efficacy relative to reference compound 3-(6-(1-(2,2-difluorobenzo[d][1,3]dioxol-5-yl)cyclopropane-1-carboxamido)-3-methylpyridin-2-yl)benzoic acid, CFBE41o- cells, 24 h, read-out: DelF508-CFTR-HRP Amax %. From the text:
Measurement of delF508-CFTR-HRP Surface Expression in CFBE41o-Cells
This assay quantifies the cell surface expressions of the mutant CFTR channel using an extracellular HRP tag.
A cellular assay was developed to measure surface expression of horseradish peroxidase (HRP) tagged delF508-CFTR in the human bronchial epithelial immortalized CFBE41o-cell line (Phuan, P. W., et al, (2014) Molecular Pharmacology 86:42-51). Specifically, the HRP sequence was inserted into the fourth extracellular loop of delF508-CFTR and stably expressed in CFBE41o-cells. Cells were seeded in 384 well plate at a density of 5000 cells/well and incubated at 37° C. for 12 to 24 hours in medium (Gibco MEM #11095, 10% FBS, 10 mM HEPES, […], 200 μg/mL G418, 3 μg/mL Puromycin). The delF508-CFTR-HRP expression was induced with 500 ng/mL doxycycline (Sigma D-9891, dissolved in H2O and sterile filtered) in medium and the cells were incubated at 37° C. for 48 h. Old medium was removed and fresh medium was added containing 500 ng/mL doxycycline and unknown test compound at required test concentration in DMSO, not exceeding 0.5% final DMSO concentration. The highest concentration tested was 10 μM with a 10-point concentration response curve using a 3-fold dilution. After addition of compounds, the cells were incubated for 24 h at 37° C. On the final day, cells were washed four times in PBS containing 1 mM MgCl2 and 0.1 mM CaCl2. HRP-Substrate (SuperSignal ELISA Pico, Fisher #37069) 20 μl/well was added and the luminescence signal was determined (Viewlux, Perkin Elmer). Light was emitted upon addition of exogenous HRP-Substrate only when delF508-CFTR-HRP reached the cell surface and the HRP tag was accessible to the HRP-Substrate (note: HRP-Substrate cannot cross the lipid bilayer to reach delF508-CFTR-HRP misfolded within the cell).
The median activity for the lowest concentration of the compounds on each assay plate was calculated and this value was used to normalize the signal for each well on the respective plate. Three replicates at each concentrations for every compound were run to determine one EC50. The median value was determined and used to calculate compound activities as described below. Effective half maximal values (EC50) were calculated for each compound by performing logistic regression on measured dose-response data points using the equation: […]
where “Y” is the observed activity, “Bottom” is the lowest observed value, “Top” is the highest observed value, and the “Hill coefficient” gives the largest absolute value of the slope. The curve fitting is carried out by a curve fitting program implemented at GNF using Matlab (Mathworks).
The dose response curves also were used to calculate Fold Change (FC) using the equation: […]
Compound efficacy relative to the reference compound 3-(6-(1-(2,2-difluorobenzo[d][1,3]dioxol-5-yl)cyclopropane-1-carboxamido)-3-methylpyridin-2-yl)benzoic acid was determined using the following formula: […]

The pEC50 is the negative decadic logarithm of the EC50, by convention in mol/L.

pEC50: −log10 of the molar value.

T1 sequence (P13569 with tags, fused parts or gaps DEL508-508): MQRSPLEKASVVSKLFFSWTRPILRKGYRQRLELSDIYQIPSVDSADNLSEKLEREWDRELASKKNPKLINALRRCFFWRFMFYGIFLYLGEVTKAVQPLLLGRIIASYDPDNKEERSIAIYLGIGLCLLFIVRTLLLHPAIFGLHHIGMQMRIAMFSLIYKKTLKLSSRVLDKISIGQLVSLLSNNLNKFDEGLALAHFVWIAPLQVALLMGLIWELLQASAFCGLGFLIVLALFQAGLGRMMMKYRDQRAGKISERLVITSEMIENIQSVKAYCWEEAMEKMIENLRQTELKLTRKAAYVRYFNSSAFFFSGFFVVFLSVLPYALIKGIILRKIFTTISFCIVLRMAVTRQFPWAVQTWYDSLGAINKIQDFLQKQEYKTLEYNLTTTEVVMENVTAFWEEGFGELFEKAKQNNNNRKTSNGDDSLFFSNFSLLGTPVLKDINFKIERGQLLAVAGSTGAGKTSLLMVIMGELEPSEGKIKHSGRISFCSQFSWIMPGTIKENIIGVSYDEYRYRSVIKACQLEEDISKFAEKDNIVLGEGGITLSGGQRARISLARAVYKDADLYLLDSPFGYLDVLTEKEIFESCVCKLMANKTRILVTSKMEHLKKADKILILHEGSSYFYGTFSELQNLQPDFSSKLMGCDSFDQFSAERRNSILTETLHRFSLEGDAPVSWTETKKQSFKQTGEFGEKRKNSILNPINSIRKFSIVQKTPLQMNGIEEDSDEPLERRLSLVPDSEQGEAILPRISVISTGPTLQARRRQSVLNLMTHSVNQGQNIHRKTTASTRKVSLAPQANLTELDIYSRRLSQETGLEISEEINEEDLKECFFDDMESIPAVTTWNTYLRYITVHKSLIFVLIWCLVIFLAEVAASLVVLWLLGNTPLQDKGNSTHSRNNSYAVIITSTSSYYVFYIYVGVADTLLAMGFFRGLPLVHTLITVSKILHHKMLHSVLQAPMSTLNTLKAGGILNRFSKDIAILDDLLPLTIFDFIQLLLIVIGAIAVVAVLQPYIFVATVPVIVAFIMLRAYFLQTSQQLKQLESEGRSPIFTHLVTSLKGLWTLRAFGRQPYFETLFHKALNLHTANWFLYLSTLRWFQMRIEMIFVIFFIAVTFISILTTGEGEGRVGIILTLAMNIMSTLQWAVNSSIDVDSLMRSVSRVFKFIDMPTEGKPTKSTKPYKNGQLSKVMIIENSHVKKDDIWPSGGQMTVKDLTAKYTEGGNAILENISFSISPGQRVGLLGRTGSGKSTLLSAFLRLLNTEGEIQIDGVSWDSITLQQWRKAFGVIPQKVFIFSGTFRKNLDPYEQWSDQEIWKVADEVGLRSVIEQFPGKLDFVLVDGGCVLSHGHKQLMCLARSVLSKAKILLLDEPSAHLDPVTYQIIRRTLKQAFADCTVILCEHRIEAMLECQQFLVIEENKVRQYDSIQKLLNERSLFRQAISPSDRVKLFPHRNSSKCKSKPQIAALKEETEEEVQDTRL

In the case of `CCc1ccc(F)cc1-c1nc(NS(=O)(=O)c2cccc(N(CCC(=O)O)CC3CC3)n2)ccc1C(F)(F)F` [Compound 116, 3-((cyclopropylmethyl)(6-(N-(6-(2-ethyl-5-fluorophenyl)-5-(trifluoromethyl)pyridin-2-yl)sulfamoyl)pyridin-2-yl)amino)propanoic Acid], the pEC50 was 5.92. On to `Cc1ccccc1-c1nc(NS(=O)(=O)c2cccc(N3CCC(C(C)(C)C(=O)O)CC3)n2)ccc1C(F)(F)F` [Compound 10, 2-methyl-2-(1-(6-(N-(6-(o-tolyl)-5-(trifluoromethyl)pyridin-2-yl)sulfamoyl)pyridin-2-yl)piperidin-4-yl)propanoic Acid], for which the negative logarithm of the EC50 (pEC50) is 6.04 and the Emax turned out to be 266%. For `Cc1ccccc1-c1nc(NS(=O)(=O)c2cccc(N(C)CCCC(=O)O)n2)ccc1C(F)(F)F` [Compound 37, 4-(methyl(6-(N-(6-(o-tolyl)-5-(trifluoromethyl)pyridin-2-yl)sulfamoyl)pyridin-2-yl)amino)butanoic Acid], in that order: 5.69 and 982%. For `CC1(C(=O)O)CCN(c2cccc(S(=O)(=O)Nc3ccc(C(F)(F)F)c(-c4ccccc4-c4ncccn4)n3)n2)CC1` [Compound 18, 4-methyl-1-(6-(N-(6-(2-(pyrimidin-2-yl)phenyl)-5-(trifluoromethyl)pyridin-2-yl)sulfamoyl)pyridin-2-yl)piperidine-4-carboxylic Acid], in that order: 5.62 and 97%. As to `O=C(O)CCCCNc1cccc(S(=O)(=O)Nc2ccc(C(F)(F)F)c(-c3ccccc3C3CC3)n2)n1` [Compound 42, 5-((6-(N-(6-(2-cyclopropylphenyl)-5-(trifluoromethyl)pyridin-2-yl)sulfamoyl)pyridin-2-yl)amino)pentanoic Acid], the pEC50 is 5.57 and the Emax was 507%. For `Cc1c(F)cccc1-c1nc(NS(=O)(=O)c2cccc(N3CCCC(C)(CC(=O)O)C3)n2)ccc1C(F)(F)F` (stereo not drawn) [Compound 50, 2-(1-(6-(N-(6-(3-fluoro-2-methylphenyl)-5-(trifluoromethyl)pyridin-2-yl)sulfamoyl)pyridin-2-yl)-3-methylpiperidin-3-yl)acetic Acid], in that order: 5.68 and 867%. On to `Cc1ccccc1-c1nc(NS(=O)(=O)c2cccc(NCCCCC(=O)O)n2)ccc1C(F)(F)F` [Compound 43, 5-((6-(N-(6-(o-tolyl)-5-(trifluoromethyl)pyridin-2-yl)sulfamoyl)pyridin-2-yl)amino)pentanoic Acid], for which the pEC50 is 5.63 and the Emax came to 407%.

Take `CCc1ccccc1-c1nc(NS(=O)(=O)c2cccc(N3CCCC(CCCC(=O)O)C3)n2)ccc1C(F)(F)F` (stereo not drawn) [Compound 83, 4-(1-(6-(N-(6-(2-ethylphenyl)-5-(trifluoromethyl)pyridin-2-yl)sulfamoyl)pyridin-2-yl)piperidin-3-yl)butanoic Acid]: the negative logarithm of the EC50 (pEC50) was 5.84. Consider `Cc1ccccc1-c1nc(NS(=O)(=O)c2cccc(N3CCC(C)(CC(=O)O)C3)n2)ccc1C(F)(F)F` (stereo not drawn) [Compound 53, 2-(3-methyl-1-(6-(N-(6-(o-tolyl)-5-(trifluoromethyl)pyridin-2-yl)sulfamoyl)pyridin-2-yl)pyrrolidin-3-yl)acetic Acid], for which the pEC50 was 5.75 and the Emax was determined as 411%. In the same order, the values of `CC1(C(=O)O)CCN(c2cccc(S(=O)(=O)Nc3ccc(C(F)(F)F)c(-c4ccccc4-c4ccncc4)n3)n2)CC1` [Compound 27, 4-methyl-1-(6-(N-(6-(2-(pyridin-4-yl)phenyl)-5-(trifluoromethyl)pyridin-2-yl)sulfamoyl)pyridin-2-yl)piperidine-4-carboxylic Acid] are 5.68 and 189%.

Consider `Cc1ccccc1-c1nc(NS(=O)(=O)c2cccc(N3CCC(C)(CC(=O)O)CC3)n2)ccc1C(F)(F)F` [Compound 7, 2-(4-methyl-1-(6-(N-(6-(o-tolyl)-5-(trifluoromethyl)pyridin-2-yl)sulfamoyl)pyridin-2-yl)piperidin-4-yl)acetic Acid], for which the pEC50 is 5.73 and the Emax worked out at 363%.

As for `Cc1ccccc1-c1nc(NS(=O)(=O)c2cccc(N3CCC(CC(=O)O)CC3)n2)ccc1C(F)(F)F` [Compound 14, 2-(1-(6-(N-(6-(o-tolyl)-5-(trifluoromethyl)pyridin-2-yl)sulfamoyl)pyridin-2-yl)piperidin-4-yl)acetic Acid], the pEC50 is 5.59 and the Emax came to 283%. In the same order, the values of `Cc1c(F)cccc1-c1nc(NS(=O)(=O)c2cccc(N3CCC(C)(CC(=O)O)C3)n2)ccc1C(F)(F)F` (stereo not drawn) [Compound 54, 2-(1-(6-(N-(6-(3-fluoro-2-methylphenyl)-5-(trifluoromethyl)pyridin-2-yl)sulfamoyl)pyridin-2-yl)-3-methylpyrrolidin-3-yl)acetic Acid] are 5.70 and 369%. Take `CC(C)c1ccccc1-c1nc(NS(=O)(=O)c2cccc(N(C)CCC(=O)O)n2)ccc1C(F)(F)F` [Compound 44, 3-((6-(N-(6-(2-isopropylphenyl)-5-(trifluoromethyl)pyridin-2-yl)sulfamoyl)pyridin-2-yl)(methyl)amino)propanoic Acid]: the pEC50 is 5.82.

`CC(C)c1ccncc1-c1nc(NS(=O)(=O)c2cccc(N3CCCC(C)(C(=O)O)C3)n2)ccc1C(F)(F)F` (stereo not drawn) [Compound 30, 1-(6-(N-(4′-isopropyl-3-(trifluoromethyl)-[2,3′-bipyridin]-6-yl)sulfamoyl)pyridin-2-yl)-3-methylpiperidine-3-carboxylic Acid]: the pEC50 is 5.65 and the Emax came to 303%.

Regarding `Cc1ccccc1-c1nc(NS(=O)(=O)c2cccc(NCC3(C(=O)O)CCC3)n2)ccc1C(F)(F)F` [Compound 12, 1-(((6-(N-(6-(o-tolyl)-5-(trifluoromethyl)pyridin-2-yl)sulfamoyl)pyridin-2-yl)amino)methyl)cyclobutane-1-carboxylic Acid], the pEC50 was 5.64 and the Emax was 608%. For `Cc1ccccc1-c1nc(NS(=O)(=O)c2cccc(N(CCCC(=O)O)CC(C)C)n2)ccc1Cl` [Compound 154, 4-((6-(N-(5-chloro-6-(o-tolyl)pyridin-2-yl)sulfamoyl)pyridin-2-yl)(isobutyl)amino)butanoic Acid], in that order: 6.03 and 686%. In the same order, the values of `Cc1ccccc1-c1nc(NS(=O)(=O)c2cccc(OCCC(=O)O)n2)ccc1C(F)(F)F` [Compound 121, 3-((6-(N-(6-(o-tolyl)-5-(trifluoromethyl)pyridin-2-yl)sulfamoyl)pyridin-2-yl)nxy)propanoic Acid] are 5.48 and 167%. For `CC1(CC(=O)O)CCN(c2cccc(S(=O)(=O)Nc3ccc(C(F)(F)F)c(-c4ccccc4C4CCC4)n3)n2)CC1` [Compound 24, 2-(1-(6-(N-(6-(2-cyclobutylphenyl)-5-(trifluoromethyl)pyridin-2-yl)sulfamoyl)pyridin-2-yl)-4-methylpiperidin-4-yl)acetic Acid], in that order: 5.88 and 909%. With `Cc1ccccc1-c1nc(NS(=O)(=O)c2cccc(N3CCCC(CCC(=O)O)C3)n2)ccc1C(F)(F)F` (stereo not drawn) [Compound 73, 3-(1-(6-(N-(6-(o-tolyl)-5-(trifluoromethyl)pyridin-2-yl)sulfamoyl)pyridin-2-yl)piperidin-3-yl)propanoic acid], the pEC50 is 5.86.
